According to patent US20220054515A1, “COMPOSITION AND METHOD FOR PROMOTING INTESTINAL BARRIER HEALING” (Glycom A/S, priority 2018, published 2022):

Target: T1, GPR35 (Homo sapiens, UniProt Q9HC97)
T1 construct: host or cells: PathHunter GPR35 cell line
Assay: GPR35 activation, PathHunter β-Arrestin assay (DiscoverX)
Type: cell-based
Conditions: β-arrestin recruitment; for activation of GPR35 (result in words): highest concentration tested 10 mM; for EC50: β-Gal enzyme fragment complementation, chemiluminescence, highest concentration 10 mM, 3× dilutions, duplicate
Method: Six human milk oligosaccharides (LNnT, LNT, 2′-FL, DFL, 6′-SL and 3′-SL) were screened for their ability to activate the GPR35 receptor in an in vitro assay. The screening was conducted by DiscoverX (Fremont, Calif., USA) using the PathHunter β-Arresin assay. This assay monitored the activation of GPR35 expressed in cultured cells, using Enzyme Fragment Complementation with β-galactosidase (β-Gal) as the functional reporter. […] EA was fused to […]. When the GPR35 is activated and β-Arrestin is recruited to the receptor, PK and EA complementation occurs, restoring β-Gal activity, which was measured using chemiluminescent Detection Reagents.
The GPR35 cell line was expanded from frozen stocks and cultured according to standard procedures. Cells were seeded in a total volume of 20 μl into white walled, 384-well microplates and incubated at 37° C. for the appropriate time prior to testing. All of the testings were done in duplicate.
HMO samples were shipped to DiscoverX as concentrated stocks in Phosphate Buffered saline. On the test day, a 5× compound working intermediate was prepared in PBS. Five μl of 5× sample were added to cells and incubated at room temperature for 3 to 5 hours.
Assay signal was generated through a single addition of 12.5 μl (50 v/v %) of PathHunter Detection reagent cocktail, followed by one-hour incubation at room temperature. Microplates were read following signal generation with a PerkinElmer Envision™ instrument for chemiluminescent signal detection. Zaprinast (which is known to be an activator of GPR35) was used as positive control. Dose-responses were generated by iterative 3× dilutions of the highest concentration tested (10 mM).

T1 sequence (Q9HC97 whole entry): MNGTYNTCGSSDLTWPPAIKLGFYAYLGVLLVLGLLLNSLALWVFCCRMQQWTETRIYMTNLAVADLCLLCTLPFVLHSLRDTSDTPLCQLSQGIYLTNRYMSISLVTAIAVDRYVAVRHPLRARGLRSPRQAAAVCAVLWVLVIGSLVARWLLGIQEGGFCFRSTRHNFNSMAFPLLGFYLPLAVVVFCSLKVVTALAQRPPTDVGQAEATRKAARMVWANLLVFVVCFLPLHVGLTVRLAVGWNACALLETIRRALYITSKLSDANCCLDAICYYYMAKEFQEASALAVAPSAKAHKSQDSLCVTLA

Row | SMILES | activation of GPR35 (result in words) | EC50 [mM]
1 | C[C@@H]1O[C@@H](O[C@H]2[C@H](O[C@H]3[C@H](O[C@@H]4O[C@@H](C)[C@@H](O)[C@@H](O)[C@@H]4O)[C@@H](O)C(O)O[C@@H]3CO)O[C@H](CO)[C@H](O)[C@@H]2O)[C@@H](O)[C@H](O)[C@@H]1O (some centres unmarked) [DFL, difucosyllactose] | No activation | –
2 | CC(=O)N[C@H]1[C@H](O[C@H]2[C@@H](O)[C@@H](CO)O[C@@H](O[C@H]3[C@H](O)[C@@H](O)C(O)O[C@@H]3CO)[C@@H]2O)O[C@H](CO)[C@@H](O[C@@H]2O[C@H](CO)[C@H](O)[C@H](O)[C@H]2O)[C@@H]1O (mixture of isomers) [LNnT, lacto-N-neotetraose] | No activation | –
3 | CC(=O)N[C@H]1[C@H](O[C@H]2[C@@H](O)[C@@H](CO)O[C@@H](O[C@H]3[C@H](O)[C@@H](O)C(O)O[C@@H]3CO)[C@@H]2O)O[C@H](CO)[C@@H](O)[C@@H]1O[C@@H]1O[C@H](CO)[C@H](O)[C@H](O)[C@H]1O (some centres unmarked) [LNT, lacto-N-tetraose] | – | 4.5
4 | CC(=O)N[C@H]1[C@H]([C@H](O)[C@H](O)CO)O[C@@](OC[C@H]2O[C@@H](O[C@H]3[C@H](O)[C@@H](O)[C@H](O)O[C@@H]3CO)[C@H](O)[C@@H](O)[C@H]2O)(C(=O)O)C[C@@H]1O [6′-SL, 6′-sialyllactose] | – | 6.5
5 | CC(=O)N[C@H]1[C@H]([C@H](O)[C@H](O)CO)O[C@@](O[C@H]2[C@@H](O)[C@@H](CO)O[C@@H](O[C@H]3[C@H](O)[C@@H](O)C(O)O[C@@H]3CO)[C@@H]2O)(C(=O)O)C[C@@H]1O (some centres unmarked) [3′-SL, 3′-sialyllactose] | No activation | –
